Here are results for two molecules from patent US8980571B2, “Method of identifying a candidate compound which may inhibit α9-nAchR overexpression or estrogen receptor-dependent transcription in nicotine-derived-compound-induced breast cancer cells” (Taipei Medical University, priority 2011, dated 2015).

The test system of data set [1] is ERK1/2. Kind of data set: kinase competition assay, p-ERK1/2 immunoblotting in MCF-7 cells. Type of data set: cell-based, human. As to conditions: 25 μM pretreatment 30 min, then E2 10 nM 30 min. On the procedure:
After treatment, the cells were harvested for immunoblotting analysis. The p-ERα, total ER-α, and MAPK kinase proteins levels were detected by immunoblotting analysis.
For the kinase competition assays, the cells were treated with either 10 μM Ly294002, 25 μM PD98059, or 25 μM SP600125 (all from Tocris Cookson Inc., Ellisville, USA) before the treatment with nicotine or E2. All of the cell lines were grown in phenol red-free DMEM for 7 days before the experiments (Lewis, J. S., Thomas, T. J., Pestell, R. G., Albanese, C., Gallo, M. A., and Thomas, T. 2005. Differential effects of 16alpha-hydroxyestrone and 2-methoxyestradiol on cyclin D1 involving the transcription factor ATF-2 in MCF-7 breast cancer cells. J Mol Endocrinol 34:91-105). The DMEM medium used for these experiments contained 10% FBS that had been pretreated with dextran-coated charcoal (0.5% Norit A and 0.05% Dextran T-70) to avoid the effects of serum-derived estrogenic compounds.
Cell extracts were prepared as previously in Ho, Y. S., Lai, C. S., Liu, H. I., Ho, S. Y., Tai, C., Pan, M. H., and Wang, Y. J. 2007. Dihydrolipoic acid inhibits skin tumor promotion through anti-inflammation and anti-oxidation. Biochem Pharmacol 73:1786-1795. Fifty micrograms of protein from each sample were resolved by 12% SDS-polyacrylamide gel electrophoresis, transferred to PVDF and analyzed by western blotting. […]
(In general: Immunoblotting shows a protein as a band on a membrane.)

Data set [2] deals with α9-nAChR promoter. Put plainly: luciferase activity assay, pGL3(α9-nAChR) promoter constructs in MCF-7 cells. The data set is classed as cell-based, human.
Experimental: (§1) Cell lysates were harvested, and relative firefly luciferase activities were measured and normalized to renilla luciferase activities in the same cell lysates. […] The luciferase activity was assayed and normalized to the pRL-TK expression as described above. […] The data were analyzed using nonparametric tests; all P-values are two-sided.
All of the α9-nAChR promoter-luciferase gene fusions were constructed using a pGL3-Basic vector (Promega), and suitable α9 promoter fragments were introduced into the polylinker region of the vector, upstream of the luciferase gene. These constructs were defined as pGL3(α9-nAChR). The fragments were generated using restriction enzymes and were either cloned directly into a pGL3-Basic vector or first subcloned in a pBluescript vector and then transferred into a pGL3-Basic vector.
MCF-7 cells were plated in six-well plates and incubated overnight. The following day, the cells were transiently cotransfected with 2 μg of pGL3 (α9-nAChR) promoter plasmid and 500 ng of RLTK plasmid (Promega, Madison, Wis.) using a MP-100 microporator (Digital Bio, Seoul, Korea) according to the manufacturer's instructions. […] Twenty-four hours later, the cells were lysed with 19 Reporter Lysis Buffer (Promega, Madison, Wis.) and stored at −20° C. overnight. Luciferase activity was then determined by mixing 50 µl of the cell lysate and 50 μl of the Luciferase Assay Reagent (Promega). The total luciferase light units were quantified using a HIDEX Chameleon Microplate Reader. The relative luciferase activity was normalized to that of renilla luciferase in the same cell lysates. Each luciferase assay experiment was performed three times. In this study, the luciferase activity observed in cells transfected with the empty vector was defined as a one-fold change (i.e., basal level).
To more precisely define the regulatory elements that are required by the α9-nAChR promoter for ER-induced transcriptional activation, transient-transfection experiments were conducted using a series of 5′ promoter deletion constructs in pGL3 vectors that were transfected into MCF-7 cells. […]
Data set [3] concerns AP1 DNA-binding sites. To be noted: nicotine 0.1-10 μM, 6 h, pGL3(AP1)5, MCF-7.
Experimental: as §1
MCF-7 cells were plated in six-well plates and incubated overnight. The following day, the cells were transiently cotransfected with 2 μg of pGL3 (α9-nAChR) promoter plasmid and 500 ng of RLTK plasmid (Promega, Madison, Wis.) using a MP-100 microporator (Digital Bio, Seoul, Korea) according to the manufacturer's instructions. […] Twenty-four hours later, the cells were lysed with 19 Reporter Lysis Buffer (Promega, Madison, Wis.) and stored at −20° C. overnight. Luciferase activity was then determined by mixing 50 µl of the cell lysate and 50 μl of the Luciferase Assay Reagent (Promega). The total luciferase light units were quantified using a HIDEX Chameleon Microplate Reader. The relative luciferase activity was normalized to that of renilla luciferase in the same cell lysates. Each luciferase assay experiment was performed three times. In this study, the luciferase activity observed in cells transfected with the empty vector was defined as a one-fold change (i.e., basal level). […]
In data set [4] the test system is p-Akt (Ser473). Put plainly: p-Akt immunoblotting analysis in MCF-7 cells. The data set is classed as cell-based, human.
Text: Both p-AKT and total (T)-AKT protein expression were detected by immunoblotting analysis. The membrane was then re-probed with a GAPDH antibody to ensure equal protein loading.
Both p-AKT and T-AKT protein expression were detected by immunoblotting analysis. The membrane was then re-probed with a GAPDH antibody to ensure equal protein loading.
Fifty micrograms of protein from each sample were resolved by 12% SDS-polyacrylamide gel electrophoresis, transferred to PVDF and analyzed by western blotting. The antibodies employed for the western blotting analysis were purchased from the following vendors: anti-Akt, anti-JNK, anti-phospho JNK, anti-estrogen receptor a (anti-ERα), anti-c-Fos, anti-ERK1/2, anti-phospho ERK1/2, and protein A/G agarose beads were purchased from Santa Cruz Biotechnology (Santa Cruz, Calif., USA); anti-GAPDH, anti-α9-nAChR, and anti-phospho ERα (Ser^167) antibodies were obtained from ABcam (Cambridge, UK); anti-phospho Akt (Ser^473, Thr^308), anti-phospho c-Jun (Ser^73), anti-phospho ERα (Ser^118), and anti-phospho ERα (Ser^104/106) antibodies were purchased from Cell Signaling Technology (Danvers, Mass.). Immunodetection was performed by probing membranes with the appropriate dilutions of specific primary antibodies at room temperature for 2 h. The membranes were then incubated at room temperature for 1 h with either alkaline phosphatase-coupled anti-mouse or anti-rabbit secondary antibodies that were purchased from Santa Cruz Biotechnology. The specific protein complexes were identified by incubating the membranes with colorigenic substrates (nitroblue tetrazolium and 5-bromo-4-chloro-3indolyl-phosphate; KPL, Inc., Gaithersburg, Md., USA). In each experiment, the membranes were also probed with an anti-GAPDH antibody as a protein loading control.
For data set [5], the system named is α9-nAChR. Kind of data set: α9-nAChR mRNA and protein expression by RT-PCR and immunoblotting in MCF-7 cells. The data set is classed as cell-based, human. As to conditions: nicotine 10 μM, 6 h post-treatment.
Experimental: After treatment, the cells were harvested, and α9-nAChR mRNA and protein expression levels were determined by RT-PCR and immunoblotting analyses.
Primers specific for the α9-nAChR subunit (forward: 5′-[sequence]-3 (SEQ ID NO:18)′ and reverse: 5′-[sequence]-3 (SEQ ID NO:19)′) were synthesized by MB Mission BioTech (Taipei, Taiwan). The PCR amplicons were analyzed in 1.2% agarose gels (Amresco, Inc, Solon, Ohio, USA) that were stained with ethidium bromide. […] The α9-nAChR mRNA fluorescence intensity was measured and normalized to GUS expression levels using the built-in Roche LightCycler software (version 4).
The conditions of data set [6]: cited from earlier work.

Molecules are shown by their SMILES. Where only a bound is given, the exact number is not on record here.

As for `COc1cccc(-c2cc(=O)c3ccccc3o2)c1N` [PD98059], the “effect on E2-induced increase in p-ERK1/2 protein levels” value in data set [1] was “almost completely abolished”.
With `CN1CCCC1c1cccnc1` (stereo not drawn) [nicotine], the “induced responsiveness of promoter with positions -995 to -260 deleted” value in data set [2] (E2 10 nM or nicotine 10 μM) is listed as “preserved”. In addition, the “nicotine-induced luciferase activity with promoter positions -41 to -1 deleted” value in data set [2] (nicotine 10 μM) is listed as “abolished”. For the same molecule, the “induction of α9-nAChR promoter activity (luciferase), full-length construct” value in data set [2] (nicotine 10 μM, 24 h, empty vector = one-fold) is listed as “greater than fourfold”. Besides, the AP1-linked luciferase activity result in data set [3] is “increased the AP1-linked luciferase activity in a dose-dependent manner”. In addition, the “effect of combined treatment on E2-induced Akt (Ser473) phosphorylation” value in data set [4] (nicotine 5 μM + E2 5 nM, 15 min, MCF-7) is “enhanced”. In addition, the “time to significantly increased p-Akt (Ser473) expression” value in data set [4] (nicotine 10 μM, MCF-7) is given as at most 10 min. In data set [4] (nicotine 10 μM, MCF-7, time course), the “p-Akt (Ser473) expression for the duration of the experiment” value is on record as “persistent increase”. In addition, the “minimum concentration required for p-Akt (Ser473) induction” value in data set [4] (within 15 min, MCF-7) was 5 µM. Also, the “α9-nAChR mRNA and protein expression levels” value in data set [5] is reported as “significantly induced”. In addition, in data set [6] (in vivo), the “nicotine absorbed systemically while smoking a cigarette” value is “roughly 1.0 mg”, the “nicotine concentration in the gastric juice” value is above 800 ng/mL, the “nicotine concentration in the plasma” value is “approximately 15 ng/ml” and the “nicotine concentration in the saliva” value was above 1300 ng/mL. Also, the “share of inhaled nicotine absorbed by the body” value in data set [6] (studies using 14C-nicotine) is on record as 80-90%.
